Biological target: Poly [ADP-ribose] polymerase 1 (Homo sapiens, UniProt P09874)
Test: Enzyme Assay: Inhibition of PARP-1 enzymatic activities was measured using an HT Universal Colorimetric PARP Assay Kit (Trevigen, catalogue #4677-096-K) following the standard procedures. Serial dilutions of PARP compounds were added to appropriate wells. The compound was incubated with PARP enzyme at RT for 10 min, and the reaction was initiated by addition of the PARP substrate cocktail, Each concentration of compound was tested in triplicate wells. After 15 min reaction, the reaction was stopped, and the Strep-HRP was added into each well and incubated for 1 h at RT. After addition of TACS-Sapphire colorimetric substrate and incubated in dark for 15 min, the OD450 was read out with an EnVision instrument. IC50 values (the concentration at which 50% of the enzyme activity is inhibited) were calculated, which are determined over a range of different concentrations, normally from 10 uM to 0.1 nM.

Chain of Poly [ADP-ribose] polymerase 1 (P09874 whole entry): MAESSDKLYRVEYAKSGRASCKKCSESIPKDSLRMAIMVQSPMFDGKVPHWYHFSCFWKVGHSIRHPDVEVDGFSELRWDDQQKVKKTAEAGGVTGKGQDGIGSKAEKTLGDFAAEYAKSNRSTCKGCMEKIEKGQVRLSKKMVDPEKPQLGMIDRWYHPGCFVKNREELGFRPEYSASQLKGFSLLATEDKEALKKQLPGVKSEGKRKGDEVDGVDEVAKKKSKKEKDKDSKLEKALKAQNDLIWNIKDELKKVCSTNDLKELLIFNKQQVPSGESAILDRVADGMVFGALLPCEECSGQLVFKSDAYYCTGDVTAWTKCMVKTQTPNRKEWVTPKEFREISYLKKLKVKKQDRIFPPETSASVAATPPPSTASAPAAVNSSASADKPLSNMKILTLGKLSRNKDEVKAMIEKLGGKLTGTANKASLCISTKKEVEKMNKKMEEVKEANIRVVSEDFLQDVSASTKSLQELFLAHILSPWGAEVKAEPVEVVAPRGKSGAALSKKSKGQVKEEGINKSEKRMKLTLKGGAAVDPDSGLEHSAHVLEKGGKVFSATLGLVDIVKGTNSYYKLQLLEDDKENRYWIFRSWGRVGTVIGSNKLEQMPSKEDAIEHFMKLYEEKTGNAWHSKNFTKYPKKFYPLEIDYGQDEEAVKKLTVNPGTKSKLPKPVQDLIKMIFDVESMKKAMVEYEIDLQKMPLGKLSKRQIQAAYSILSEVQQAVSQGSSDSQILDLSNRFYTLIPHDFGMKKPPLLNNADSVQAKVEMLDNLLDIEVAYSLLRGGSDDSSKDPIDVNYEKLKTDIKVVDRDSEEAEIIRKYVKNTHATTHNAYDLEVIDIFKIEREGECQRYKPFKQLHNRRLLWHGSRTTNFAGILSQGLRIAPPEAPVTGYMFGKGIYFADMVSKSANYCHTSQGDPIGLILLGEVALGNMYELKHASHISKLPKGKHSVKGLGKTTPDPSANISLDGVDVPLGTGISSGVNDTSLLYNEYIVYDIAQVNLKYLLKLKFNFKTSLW

SMILES: CC(C)(C)C(=O)N1CCP(=O)(c2cc(Cc3n[nH]c(=O)c4ccccc34)ccc2F)CC1
- IC50: < 100 nM

SMILES: CC(C)P1(=O)CCN(C(=O)c2cc(Cc3n[nH]c(=O)c4ccccc34)ccc2F)CC1
- IC50: < 100 nM

SMILES: CCP1(=O)CCN(C(=O)c2cc(Cc3n[nH]c(=O)c4ccccc34)ccc2F)CC1
- IC50: < 100 nM

SMILES: O=c1[nH]nc(Cc2ccc(F)c(P3(=O)CCN(c4ncccn4)CC3)c2)c2ccccc12
- IC50: < 100 nM

SMILES: CCOP1(=O)CCN(C(=O)c2cc(Cc3n[nH]c(=O)c4ccccc34)ccc2F)CC1
- IC50: < 100 nM

SMILES: CC(C)CN1CCP(=O)(c2cc(Cc3n[nH]c(=O)c4ccccc34)ccc2F)CC1
- IC50: < 100 nM

SMILES: N#C/N=C(\N1CCC1)N1CCP(=O)(c2cc(Cc3n[nH]c(=O)c4ccccc34)ccc2F)CC1
- IC50: < 100 nM

Source: ChEMBL document CHEMBL5728984, “Tricyclic inhibitors of poly(ADP-ribose)polymerase” (2022)
